Tests used:
Format in all cases: cell-based
[1] = system: Gardnerella vaginalis in the secretions from BV patients; experiment: Selective promotion of carbohydrate containing gels for the growth of Gardnerella vaginalis (Experimental Example 4); conditions: secretions from 20 BV patients; 1% (w/v) carbohydrate gel, 48 hrs slightly aerobic
Procedure: (§1) (3) After sampling, the vaginal secretion specimens from BV patients meeting the criteria of inclusion were immediately inoculated to the above 4 gels containing a carbohydrate, slightly aerobically incubated at 37° C. for 48 hrs, then transferred to a plate containing improved MRS with 1% (w/v) glucose and 5% (w/v) calf serum, slightly aerobically incubated for 20-48 hrs, isolated, purified and multiplied. The strain was identified by 16s rDNA sequencing.

Canidia albicans = experiment: Metabolization of carbohydrates by Canidia albicans, residual carbohydrate by HPLC (Experimental Example 5); conditions: 72 hrs aerobic, 37° C., initial 1.5% (w/v) carbohydrate, pH 7.0, detection limit 0.05% (w/v)
Procedure: (1) Grouping in experiment:
(2) Test strain: 2 strains of Canidia albicans, isolated from patients with candidal vaginitis.
The supernatant was separated by centrifugation, and packed in a specification of 5 ml/tube. The carbohydrate content in each tube was detected by HPLC.

[2] = system: Bifidobacteria in the secretions from BV patients; experiment: Selective promotion of carbohydrate containing gels for the growth of Bifidobacteria (Experimental Example 4); conditions: secretions from 20 BV patients; 1% (w/v) carbohydrate gel, 48 hrs slightly aerobic
Procedure: as §1

BV-associated bacteria [3] = experiment: Acid production by BV-associated bacteria in carbohydrate containing gels, slightly aerobic incubation (Experimental Example 1); conditions: 1% (w/v) carbohydrate gel
Source text: (1) Grouping in experiment: • (1) Isomaltulose group: containing 1% (w/v) isomaltulose, MRS basal medium without carbohydrate, 5% (w/v) calf serum, and 0.5% (w/v) xanthan gum, pH5.4; • (2) Isomaltose group: containing 1% (w/v) isomaltose, MRS basal medium without carbohydrate, 5% (w/v) calf serum, and 0.5% (w/v) xanthan gum, pH5.4; • (3) Sucrose group: containing 1% (w/v) sucrose, MRS basal medium without carbohydrate, 5% (w/v) calf serum, and 0.5% (w/v) xanthan gum, pH5.4; and • (4) Maltose group: containing 1% (w/v) maltose, MRS basal medium without carbohydrate, 5% (w/v) calf serum, and 0.5% (w/v) xanthan gum, pH5.4.
The gel of each group was formulated essentially following the method described in Composition Example 1, then sterilized, added with calf serum, and packed in test tubes in a specification of 5 g/tube, for late use.
(§2) (2) Secretion specimens from BV patients: vaginal secretions from 5 BV patients; and the criteria of inclusion are: • (1) conforming to the Amsel clinical criteria of BV diagnosis, wherein the pH value of the vaginal secretions was >4.6; • (2) after smearing, Gram staining and microscopical examination of vaginal secretions, Nugent score ≥7; and • (3) no other vaginosis and no antimicrobial agent is used within two weeks.
(3) After sampling, the secretion specimens from BV patients meeting the criteria of inclusion were immediately inoculated to the above 4 gels containing a carbohydrate, and slightly aerobically incubated at 37° C. for 46 hrs. The pH values of the gel matrices are detected with a precise pH test paper respectively at 14 hrs, 36 hrs, and 46 hrs.

[4] = system: Lactobacilli in the secretions from BV patients; experiment: Selective promotion of carbohydrate containing gels for the growth of Lactobacilli, 16s rDNA identification (Experimental Example 4); conditions: secretions from 20 BV patients; 1% (w/v) carbohydrate gel, 48 hrs slightly aerobic
Procedure: as §1

BV-associated bacteria [5] = experiment: Acid production by BV-associated bacteria, carbohydrates and antibacterial agents in combination (Experimental Example 3); conditions: anaerobic, 37° C., 1.5% (w/v) carbohydrate, initial pH 5.4
Source text: (1) Grouping in experiment: • (1) Sucrose-preservative group: containing 1.5% (w/v) sucrose, 0.5% (w/v) sodium propionate, 0.025% (w/v) sodium dehydroacetate, MRS basal medium without carbohydrate, 5% (w/v) calf serum, and 0.45% (w/v) agar, pH5.4; • (2) Isomaltose-preservative group: containing 1.5% (w/v) isomaltose, 0.5% (w/v) sodium propionate, 0.025% (w/v) sodium dehydroacetate, MRS basal medium without carbohydrate, 5% (w/v) calf serum, and 0.45% (w/v) agar, pH5.4; • (3) Isomaltulose-preservative group: containing 1.5% (w/v) isomaltulose, 0.5% (w/v) sodium propionate, 0.025% (w/v) sodium dehydroacetate, MRS basal medium without carbohydrate, 5% (w/v) calf serum, and 0.45% (w/v) agar, pH5.4; • (4) Sucrose control group: containing 1.5% (w/v) sucrose, MRS basal medium without carbohydrate, 5% (w/v) calf serum, and 0.45% (w/v) agar, pH5.4; • (5) Isomaltose control group: containing 1.5% (w/v) isomaltose, MRS basal medium without carbohydrate, 5% (w/v) calf serum, and 0.45% (w/v) agar, pH5.4; and • (6) Isomaltulose control group: containing 1.5% (w/v) isomaltulose, MRS basal medium without carbohydrate, 5% (w/v) calf serum, and 0.45% (w/v) agar, pH5.4.
The semi-solid agar of each group is formulated essentially following the method described in Composition Example 1, then sterilized, added with calf serum, and packed in test tubes in a specification of 5 g/tube, for late use.
as §2, with “2” for “5”, “staining,” for “staining”, “vaginosis,” for “vaginosis”
(3) After sampling, the vaginal secretion specimens from BV patients meeting the criteria of inclusion were immediately inoculated to 3 semi-solid agars containing a carbohydrate and a preservative and 3 control agars at the bedside, and anaerobically incubated at 37° C. for […]. The pH values of the agar matrices are detected with a precise pH test paper after 30 or 32 hrs and 40 or 48 hrs of incubation.

[6] = Specimen 1, 14 hrs, slightly aerobic, 37° C., initial pH 5.4
[7] = Specimen 1, 46 hrs, slightly aerobic, 37° C., initial pH 5.4
[8] = Specimen 2, 14 hrs, slightly aerobic, 37° C., initial pH 5.4
[9] = Specimen 2, 46 hrs, slightly aerobic, 37° C., initial pH 5.4
[10] = Specimen 3, 14 hrs, slightly aerobic, 37° C., initial pH 5.4
[11] = Specimen 3, 36 hrs, slightly aerobic, 37° C., initial pH 5.4
[12] = Specimen 4, 14 hrs, slightly aerobic, 37° C., initial pH 5.4
[13] = Specimen 4, 36 hrs, slightly aerobic, 37° C., initial pH 5.4
[14] = Specimen 5, 14 hrs, slightly aerobic, 37° C., initial pH 5.4
[15] = Specimen 5, 36 hrs, slightly aerobic, 37° C., initial pH 5.4

SMILES	number of samples positive for Gardnerella vaginalis [1]	samples positive for Gardnerella vaginalis, In total [1]	residual carbohydrate content by HPLC (Canidia albicans; Canidia albicans 1) [g %]	residual carbohydrate content by HPLC (Canidia albicans; Canidia albicans 2) [g %]	number of samples positive for Bifidobacterium bifidum [2]	number of samples positive for Bifidobacterium breve [2]	number of samples positive for Bifidobacterium dentium [2]	number of samples positive for Bifidobacterium longum [2]	samples positive for Bifidobacteria, In total [2]	pH of the gel (BV-associated bacteria [3]; Specimen 1, 0 hr (initial))	pH of the gel (BV-associated bacteria [3]; [6])	pH of the gel (BV-associated bacteria [3]; [7])	pH of the gel (BV-associated bacteria [3]; Specimen 2, 0 hr (initial))	pH of the gel (BV-associated bacteria [3]; [8])	pH of the gel (BV-associated bacteria [3]; [9])	pH of the gel (BV-associated bacteria [3]; Specimen 3, 0 hr (initial))	pH of the gel (BV-associated bacteria [3]; [10])	pH of the gel (BV-associated bacteria [3]; [11])	pH of the gel (BV-associated bacteria [3]; Specimen 4, 0 hr (initial))	pH of the gel (BV-associated bacteria [3]; [12])	further results
OC[C@H]1O[C@H](OC[C@H]2OC(O)(CO)[C@@H](O)[C@@H]2O)[C@H](O)[C@@H](O)[C@@H]1O (stereo partly drawn) [Isomaltulose, isomaltulose]	2 (15, 19)	2	0.11	0.12	0	0	0	0	0	5.4	≤3.8	≤3.8	5.4	4.1	≤3.8	5.4	3.8-4.1	≤3.8	5.4	4.1	pH of the gel (BV-associated bacteria [3]; [13]): ≤3.8; pH of the gel (BV-associated bacteria [3]; Specimen 5, 0 hr (initial)): 5.4; pH of the gel (BV-associated bacteria [3]; [14]): 4.1-4.4; pH of the gel (BV-associated bacteria [3]; [15]): ≤3.8; samples positive for Lactobacilli, In total [4]: 9; total number of samples positive for L. amylovorus incubation [4]: 1; total number of samples positive for L. crispatus incubation [4]: 1; total number of samples positive for L. gasseri incubation [4]: 2; total number of samples positive for L. iners incubation [4]: 0; total number of samples positive for L. jensenii incubation [4]: 4^1; total number of samples positive for L. mucosae incubation [4]: 1; pH of the semi-solid agar (BV-associated bacteria [5]; Specimen 1 (30 hrs)): 3.8; pH of the semi-solid agar (BV-associated bacteria [5]; Specimen 2 (32 hrs)): 3.8
OC[C@H]1O[C@@](CO)(O[C@H]2O[C@H](CO)[C@@H](O)[C@H](O)[C@H]2O)[C@@H](O)[C@@H]1O [Sucrose, sucrose]	3 (8, 15, 19)	3	1.04	0.95	0	0	0	0	0	5.4	≤3.8	≤3.8	5.4	4.4	≤3.8	5.4	4.8-5.1	4.4-4.6	5.4	4.8-5.1	pH of the gel (BV-associated bacteria [3]; [13]): ≤3.8; pH of the gel (BV-associated bacteria [3]; Specimen 5, 0 hr (initial)): 5.4; pH of the gel (BV-associated bacteria [3]; [14]): 4.4-4.6; pH of the gel (BV-associated bacteria [3]; [15]): 4.4-4.6; samples positive for Lactobacilli, In total [4]: 9; total number of samples positive for L. amylovorus incubation [4]: 1; total number of samples positive for L. crispatus incubation [4]: 1; total number of samples positive for L. gasseri incubation [4]: 2; total number of samples positive for L. iners incubation [4]: 0; total number of samples positive for L. jensenii incubation [4]: 4; total number of samples positive for L. mucosae incubation [4]: 1; pH of the semi-solid agar (BV-associated bacteria [5]; Specimen 1 (30 hrs)): 3.8; pH of the semi-solid agar (BV-associated bacteria [5]; Specimen 2 (32 hrs)): 3.8
OC[C@H]1O[C@H](OC[C@H]2OC(O)[C@H](O)[C@@H](O)[C@@H]2O)[C@H](O)[C@@H](O)[C@@H]1O (stereo partly drawn) [Isomaltose, isomaltose]	2 (15, 19)	2	0.74	0.76	0	0	0	0	0	5.4	3.8	≤3.8	5.4	4.1-4.4	≤3.8	5.4	4.1-4.4	≤3.8	5.4	4.4	pH of the gel (BV-associated bacteria [3]; [13]): ≤3.8; pH of the gel (BV-associated bacteria [3]; Specimen 5, 0 hr (initial)): 5.4; pH of the gel (BV-associated bacteria [3]; [14]): 4.1-4.4; pH of the gel (BV-associated bacteria [3]; [15]): 4.1-4.4; samples positive for Lactobacilli, In total [4]: 9; total number of samples positive for L. amylovorus incubation [4]: 1; total number of samples positive for L. crispatus incubation [4]: 1; total number of samples positive for L. gasseri incubation [4]: 2; total number of samples positive for L. iners incubation [4]: 0; total number of samples positive for L. jensenii incubation [4]: 4; total number of samples positive for L. mucosae incubation [4]: 1; pH of the semi-solid agar (BV-associated bacteria [5]; Specimen 1 (30 hrs)): 3.8; pH of the semi-solid agar (BV-associated bacteria [5]; Specimen 2 (32 hrs)): 3.8-4.1

Source: patent publication US10869878B2, “Vaginal composition and use thereof” (SINGAPORE ZE&Z INTERNATIONAL PTE. LTD, priority 2014, dated 2020)
